In test [1] the target is T1, LD3 in the presence of Drug-1 (Homo sapiens, UniProt Q07817, DEL45-84/F105I/R102E).
T1 construct: 6xHis (N); made in house; host or cells: E. coli BL21(DE3)
The experiment in a line: SPR pre-screening and competition of Drug-1 resistant Bcl-XL mutants binding LD3. The note with it: Fig S10d. On the procedure: Supplementary Figure 10: Biophysical and cellular characterization of designed Drug-1- […]
a) Pre-screening of Drug-1 resistant Bcl-XL mutants by SPR. 5 µM of Bcl-XL and five mutants were mixed with 10 µM of Drug-1 and injected over the LD3 immobilized chip to analyse the binding response. […]
dilutions of Drug-1 were pre-mixed with 4 µM LD3 and injected over iBcl-XL_v3 immobilized chip to collect the response. c) Dissociation constant measurement of iBcl-XL_v3 and LD3. Sensorgrams are in black dashed curves and the fitted curves in solid red lines. Kd was using a 1:1 binding model. d) […]
normalized to the positive control (DMSO group). […]

The next test deals with Bcl2:LD3 complex (CDH-2) (Homo sapiens, UniProt P10415). Nature of the test: SEC-MALS drug-induced monomerization of Bcl2:LD3. The settings on record: 50 µM proteins, 100 µM drug. The procedure:
LD6 was further characterized by Size Exclusion Chromatography coupled to Light Scattering (SEC-MALS) for solution behavior, and to study dimerization and drug-induced monomerization properties. LD6 was injected at 50–100 µM into a Superdex^TM 75 300/10 GL column (GE Healthcare) using a high-performance liquid chromatography system (Ultimate 3000, Thermo Scientific) at a flow rate of 0.5 ml/min. The UV spectrum at 280 nm was collected along with static light scatter signal by a MALS device (miniDAWN TREOS, Wyatt). […] Then the mixtures were treated with either 100 µM (two-fold excess) of the corresponding drugs or the same volume of DMSO to detect complex formation and forced dissociation in SEC-MALS. The light scatter signal of the sample was collected from three different angles and the results were analyzed using the ASTRA software (version 6.1, Wyatt).
Supplementary Figure 1: Biophysical characterization of CDH-2.
Drug concentrations from 0.01 nM to
10 µM were pre-incubated with 4 µM LD3, then the mixtures were injected over a Bcl2-immobilized chip.
Response units reflect the remaining interaction of Bcl2 and LD3 in the presence of serial diluted Drug-
2. d) SEC-MALS analysis of CDH-2 showing Bcl2:LD3 complex with DMSO (black trace) and Bcl2:LD3
and LD3 (16 kDa) eluted around 22 minutes.
(1 picture or pasted object on this page, not shown here)

The results in this text go back to publication PMC8486872, “A rational blueprint for the design of chemically-controlled protein switches” (Nature Communications, 2021).

One may read the IC50 as the concentration that inhibits the measured activity by half.

The structures appear in SMILES notation. Values joined by “and” are separate entries in the source; they are usually repeats but may differ in a detail not shown here. Equal values may be shown once. “Also recorded” adds a separate entry of the source.

T1 sequence (Q07817 with tags, fused parts or gaps DEL45-84/R102E/F105I limits assumed): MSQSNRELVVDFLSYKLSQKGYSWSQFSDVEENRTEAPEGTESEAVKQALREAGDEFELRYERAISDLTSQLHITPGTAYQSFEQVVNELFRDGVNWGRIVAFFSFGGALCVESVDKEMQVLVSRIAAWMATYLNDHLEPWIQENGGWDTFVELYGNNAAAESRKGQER
Bcl2:LD3 complex (CDH-2), sequence (P10415 with tags, fused parts or gaps): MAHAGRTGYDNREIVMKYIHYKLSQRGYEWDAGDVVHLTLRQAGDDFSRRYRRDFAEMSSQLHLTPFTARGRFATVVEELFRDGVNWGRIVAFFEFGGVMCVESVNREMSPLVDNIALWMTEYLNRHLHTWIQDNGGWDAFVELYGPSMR

As for `CN(C)CC#Cc1ccc(OCCCc2sc(N3CCc4cccc(C(=O)Nc5nc6ccccc6s5)c4C3)nc2C(=O)O)c(F)c1` [Drug-1, A-1155463], the iBcl-XL_v3 response in test [1] (Drug-1 0.001 nM) is 174.876 and 175.206 and 177.174; in test [1] (Drug-1 0.01 nM) it was 215.202 and 222.394 and 221.188; in test [1] (Drug-1 0.05 nM), 207.736 and 204.171 and 203.036; in test [1] (Drug-1 0.1 nM), 189.507 and 193.343 and 194.134; in test [1] (Drug-1 0.5 nM), 204.985 and 206.922 and 206.979; in test [1] (Drug-1 1 nM) it was 184.864 and 185.609 and 186.635. Further, the iBcl-XL_v3 response in test [1] (Drug-1 10 nM) was 194.117 and 193.916 and 200.456; in test [1] (Drug-1 50 nM), 193.965 and 195.069 and 198.505; in test [1] (Drug-1 100 nM), 183.254 and 186.244 and 183.907; in test [1] (Drug-1 500 nM), 165.059 and 166.616 and 165.103; in test [1] (Drug-1 1000 nM) it was 154.762 and 156.9 and 154.341. In addition, the IC50 in test [1] (iBcl-XL_v3, best-fit, inhibitor vs. response (three parameters)) came out at 705 nM. Besides, the logIC50 in test [1] (iBcl-XL_v3, best-fit, three parameters, Drug-1 in nM) was determined as 2.848.

Turning to `CC1(C)CCC(CN2CCN(c3ccc(C(=O)NS(=O)(=O)c4ccc(NCC5CCOCC5)c([N+](=O)[O-])c4)c(Oc4cnc5[nH]ccc5c4)c3)CC2)=C(c2ccc(Cl)cc2)C1` [Drug-2, Venetoclax], on Bcl2:LD3 complex (CDH-2), the “disruption of Bcl2:LD3 complex by SEC-MALS” value is “effectively disrupts; also recorded: did not result in complex formation”.
